From the supplement of paper PMC12317010
Counter-ions that a name gives are not always drawn.

Assay: collision cross section in nitrogen (drift tube, single-field); higher = larger gas-phase ion size
[1] = ion type: [M+H], ion source: APCI, ion mode: Positive
[2] = ion type: [M+H], ion source: ESI, ion mode: Positive
[3] = ion type: [M+Na], ion source: ESI, ion mode: Positive
[4] = ion type: [M-H], ion source: ESI, ion mode: Negative
[5] = ion type: [M+], ion source: APCI, ion mode: Positive
[6] = ion source: ESI, ion mode: Positive, ion type: [M]+ (permanent cation)
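Further: chemical standards at 10 µM analysed by drift tube IMS-QTOF MS in about 3.95 torr nitrogen, mean of duplicate injections differing ≤1%, mass error below 10 ppm.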

| collision cross section in nitrogen [1] [Å²] | collision cross section in nitrogen [2] [Å²] | collision cross section in nitrogen [3] [Å²] | collision cross section in nitrogen [4] [Å²] | Structure (SMILES) | further results |
| --- | --- | --- | --- | --- | --- |
| 153.5 | 152.7 | 171.3 | 155.6 | CCNC(=O)C1CC(C)CCC1C(C)C (configuration not stated) [N-Ethyl-2-(isopropyl)-5-methylcyclohexanecarboxamide] |  |
|  |  | 157.1 |  | Nc1ccn([C@@H]2O[C@H](CO)[C@@H](O)[C@@H]2O)c(=O)n1 [Cytarabine hydrochloride] |  |
| 123.5 | 124.5 |  |  | O=C(O)c1cccnc1 [Sodium nicotinate] |  |
| 177.3 | 171 |  | 177.1 | COc1cc2ncnc(Nc3cccc(Cl)c3)c2cc1OC [N-(3-Chlorophenyl)-6,7-dimethoxyquinazolin-4-amine] |  |
|  |  |  | 177.8 | CC(C)CCCCCCCCCCCCCCC(=O)O [Isooctadecanoic acid] |  |
|  |  | 179.8 |  | CC(C)COC(=O)CCCCC(=O)OCC(C)C [Diisobutyl adipate] |  |
| 202.3 | 203.2 | 196.7 | 207.8 | O=C(O)C[C@H](O)C[C@H](O)/C=C/c1c(C2CC2)nc2ccccc2c1-c1ccc(F)cc1 [Pitavastatin calcium] |  |
|  |  | 142.9 | 132.8 | OC[C@@H](O)[C@H](O)[C@@H](O)[C@@H](O)CO [L-Glucitol] |  |
|  |  | 212.4 |  | C[C@]12C[C@H](O)[C@H]3[C@@H](CCC4=CC(=O)CC[C@@]43C)[C@@H]1CC[C@@H]2C(=O)CO [Corticosterone] |  |
| 213 | 212.6 | 211.2 | 214.2 | COC(=O)C1=C(C)NC(C)=C(C(=O)OCCN(C)Cc2ccccc2)C1c1cccc([N+](=O)[O-])c1 (configuration not stated) [Nicardipine hydrochloride] | collision cross section in nitrogen [5]: 208.8 Å² |
|  |  | 168.8 |  | CN(C)CCOC(c1ccccc1)c1ccccc1 [Diphenhydramine hydrochloride] |  |
|  |  |  | 140.9 | COC(=O)Nc1ccc(Cl)c(Cl)c1 [Swep] |  |
|  |  | 194.2 |  | CCCCCCC(O)CCCCCCCCCCC(=O)OC (configuration not stated) [Methyl 12-hydroxyoctadecanoate] |  |
|  |  | 128.2 |  | Cc1ccc(N(C)C)cc1 [N,N,4-Trimethylaniline] |  |
| 151.3 | 150.9 |  | 147.5 | CN(C)C(=O)Nc1ccc(Cl)c(Cl)c1 [Diuron] |  |
| 194.4 | 194.5 | 200.6 | 198 | Cc1cc(C2(c3cc(C)c(O)cc3C)OS(=O)(=O)c3ccccc32)c(C)cc1O [p-Xylenol blue] |  |
|  |  | 180.6 |  | CCOC(=O)C(C#N)=C(c1ccccc1)c1ccccc1 [Ethyl 2-cyano-3,3-diphenylacrylate] |  |
|  |  | 169.3 | 155 | CCCCNS(=O)(=O)c1ccc(C)cc1 [N-Butyl-p-toluenesulfonamide] |  |
|  |  |  | 177.2 | CCCCCCCCCCCCCCCCCC(=O)O [Octadecanoic acid] |  |
| 149.7 |  |  | 152.1 | c1ccc(Nc2cccc3ccccc23)cc1 [N-Phenyl-1-naphthylamine] | collision cross section in nitrogen [5]: 148.7 Å² |
|  |  |  | 137.8 | CCCCC(CC)C(=O)O (configuration not stated) [Potassium 2-ethylhexanoate] |  |
| 163.2 | 163.2 | 178.6 |  | CCCOC(=O)c1ccc(C(=O)OCCC)nc1 [Dipropyl 2,5-pyridinedicarboxylate] |  |

More lines, now with the values behind:

| Structure (SMILES) | collision cross section in nitrogen [1] [Å²] | collision cross section in nitrogen [2] [Å²] | collision cross section in nitrogen [3] [Å²] | collision cross section in nitrogen [4] [Å²] | further results |
| --- | --- | --- | --- | --- | --- |
| CCCCCCCCCCCCN1CCOCC1 [4-Dodecylmorpholine] | 176.3 | 176.3 |  |  |  |
| Cc1nc(-c2ccc3c(c2)CCN(CCC2CCC(NC(=O)/C=C/c4ccc(F)cc4)CC2)CC3)no1 (configuration not stated) | 225.5 | 224.8 | 236.2 | 226.8 |  |
| Sc1nc2ccccc2s1 [2-Mercaptobenzothiazole] |  |  |  | 128.2 |  |
| CC(C)c1cccc(C(C)C)c1NC(=O)NS(=O)(=O)c1cc(C(C)(C)O)co1 |  |  | 207.5 | 199.5 |  |
| O=S(=O)(O)c1ccc(N=Nc2c(O)ccc3ccccc23)c2ccccc12 [C.I. Acid Red 88, monosodium salt] |  |  |  | 193.7 |  |
| COCc1cnc(C2=NC(C)(C(C)C)C(=O)N2)c(C(=O)O)c1 (configuration not stated) [Imazamox] | 172.2 | 172.4 | 188.9 | 178.2 |  |
| CCOP(=O)(SC(C)CC)N1CCSC1=O (configuration not stated) [Fosthiazate] |  |  | 168.2 |  |  |
| O=C1OC2(c3ccccc31)c1cc(Br)c(O)c(Br)c1Oc1c2cc(Br)c(O)c1Br [2',4',5',7'-Tetrabromofluorescein] |  | 204.7 |  | 208.7 |  |
| CCN(CC)c1ccc(C=O)c(O)c1 [4-(Diethylamino)salicylaldehyde] | 142.6 | 143.7 |  | 147 |  |
| O=C1CC(c2ccc(O)cc2)Oc2cc(O)cc(O)c21 (racemic) [(+/-)-Naringenin] |  |  |  | 163.9 |  |
| CC(C)(O)c1cnn2c(-c3ccc(F)c(-c4c(F)cccc4C#N)c3)cnc2n1 | 197.1 | 196.4 | 209.2 | 198.6 |  |
| Nc1ccc([N+](=O)[O-])cc1O [2-Amino-5-nitrophenol] |  |  |  | 125.3 |  |
| CCOP(=S)(OCC)ON=C(C#N)c1ccccc1 [Phoxim] |  |  |  | 165.7 |  |
| CN(C)c1ccc(C=O)cc1 [4-Dimethylaminobenzaldehyde] | 129.3 | 129 |  |  |  |
| CCCc1ccccc1O [2-Propylphenol] |  |  |  | 129.6 |  |
| CCCCNC(=O)NS(=O)(=O)c1ccc(N)cc1 [Carbutamide] |  |  | 175.6 | 165 |  |
| CN(C)C(=O)Nc1cccc(OC(=O)NC(C)(C)C)c1 |  |  | 175 |  |  |
| CCCC(C)c1ccccc1O (configuration not stated) [2-(1-Methylbutyl)phenol] |  |  |  | 138.6 |  |
| O=C(O)COc1ccc(Cl)cc1 [4-Chlorophenoxyacetic acid] |  |  |  | 140.9 |  |
| Oc1ccccc1-c1ccccc1 [2-Phenylphenol] |  |  |  | 136.4 |  |
| CS(=O)(=O)c1ccc([C@@H](CC2CCCC2)C(=O)Nc2cnccn2)cc1Cl |  | 205.5 | 207.9 | 202.7 |  |
| N[C@@H](Cc1cc(I)c(Oc2ccc(O)c(I)c2)c(I)c1)C(=O)O [3,5,3′-Triiodo-L-thyronine monosodium salt] |  | 204.8 |  | 198.1 |  |

| Structure (SMILES) | collision cross section in nitrogen [1] [Å²] | collision cross section in nitrogen [2] [Å²] | collision cross section in nitrogen [3] [Å²] | collision cross section in nitrogen [4] [Å²] | further results |
| --- | --- | --- | --- | --- | --- |
| Nc1ccc(N)c2c1C(=O)c1ccccc1C2=O [1,4-Diaminoanthraquinone] | 151.4 | 151.5 |  | 149.1 | collision cross section in nitrogen [5]: 147.5 Å² |
| CCOC(=O)CC(SP(=O)(OC)OC)C(=O)OCC (configuration not stated) [Malaoxon] |  |  | 165.7 |  |  |
| Nc1ccc(-c2ccc(N)c(Cl)c2)cc1Cl [3,3'-Dichlorobenzidine dihydrochloride] |  | 167.6 |  |  | collision cross section in nitrogen [5]: 153.3 Å² |
| Cc1cc(F)ccc1-c1cc(N2CC[C@@H](O)[C@H]2CO)ncc1N(C)C(=O)C(C)(C)c1cc(C(F)(F)F)cc(C(F)(F)F)c1 | 245.7 | 244.6 | 246.4 | 232.7 |  |
| CCOc1ccc2c(ccc(C=Cc3cccc([N+](=O)[O-])c3)[n+]2C)c1 [Pinakryptol Yellow] |  |  |  |  | collision cross section in nitrogen [6]: 189.2 Å² |
| Nc1cc(C(=O)O)ccc1Cl [3-Amino-4-chlorobenzoic acid] |  |  |  | 135.4 |  |
| O=C(c1ccccc1)c1ccc(Cl)cc1 [4-Chlorobenzophenone] |  |  | 151.1 |  |  |
| CCCCCCCCCCCC(=O)OCC(O)CO (configuration not stated) [1-Monolaurin] |  |  | 176.3 |  |  |
| CC(C)CC(C)(c1ccc(O)cc1)c1ccc(O)cc1 [4,4'-(4-Methylpentane-2,2-diyl)diphenol] |  |  |  | 175.3 |  |
| CCNc1nc(NCC)nc(SC)n1 [Simetryn] | 149.6 | 149.5 |  |  |  |
| CC(C)(O)C(=O)Nc1ccc([N+](=O)[O-])c(C(F)(F)F)c1 [Hydroxyflutamide] |  |  |  | 157.4 |  |
| Nc1c(Br)cc([N+](=O)[O-])cc1Br [2,6-Dibromo-4-nitroaniline] |  |  |  | 134.9 |  |
| CC(C)[N+](C)(CCOC(=O)C1c2ccccc2Oc2ccccc21)C(C)C [Propantheline bromide] |  |  |  |  | collision cross section in nitrogen [6]: 184.1 Å² |
| C=C(C)C(=O)OCCCCCCCCCCOC(=O)C(=C)C [1,10-Decanediol dimethacrylate] |  |  | 184.9 |  |  |
| CCOc1nc(F)cc2nc(S(=O)(=O)Nc3c(Cl)cccc3Cl)nn12 [Diclosulam] | 184.6 | 183.5 | 194 | 183 |  |
| CCOC(=O)c1cn2nc(OP(=S)(OCC)OCC)cc2nc1C [Pyrazophos] | 192.5 | 191.7 | 195.9 |  |  |
| CCCc1ccc(O)cc1 [4-Propylphenol] |  |  |  | 134.5 |  |
| O=C1NC(=O)C2CC=CCC12 (configuration not stated) [1,2,3,6-Tetrahydrophthalimide] |  |  |  | 132.6 |  |
| CCOc1nc(NC)nc(NC(=O)NS(=O)(=O)c2ccccc2C(=O)OC)n1 [Ethametsulfuron-methyl] |  | 197.6 |  | 196 |  |
| O=S(=O)(O)c1ccc(N=Nc2c(O)ccc3ccccc23)cc1 [C.I. Acid Orange 7] |  |  |  | 182.7 |  |
| NS(=O)(=O)C(F)(F)C(F)(F)C(F)(F)C(F)(F)C(F)(F)C(F)(F)C(F)(F)C(F)(F)F [Perfluorooctanesulfonamide] |  |  |  | 170.4 |  |
